Measurements from patent publication US20030003139A1 (Schering AG, priority 2000, published 2003).

Experiments:
[1] = in-vitro-diffusion test, Franz-flow cell, transdermal in-vitro skin flow from patches; assay type: in vitro ADME, mice; conditions: for transdermal in-vitro skin flow / transdermal in-vitro skin flow, MW (mean value): gestodene patch 1% by weight; for transdermal in-vitro skin flow, MW (mean value): mean of cells
From the text: The measurements were made with the following in-vitro-diffusion test. A tempered Franz-flow cell is divided into a donor compartment and an acceptor compartment by a 2 cm^2 piece of excised skin from nude mice, whereby the horny layer faces toward the donor. A 3% or 5% solution of hydroxypropyl-β-cyclodextrin in buffer is pumped with the aid of a pneumatic pump from a tempered storage container through the acceptor compartment and collected with the aid of a fraction collector in glass vials that are exchanged at specific time intervals.
The active ingredient-containing patches are bonded to the donor side.
The content of active ingredients is determined in the individual fractions by means of HPLC/UV or GC/FID.
The transdermal in-vitro skin flow is indicated in ng/cm^2/h: […]

[2] = solubility (crystal-free loadability) of the active ingredient in polyacrylate matrix-TDS according to Example 1; assay type: physicochemical; conditions: for content up to which active ingredient is present in dissolved form in matrix-TDS: matrix-TDS according to Example 1
Description: Hydroxytrienedione is weighed in a beaker and with 25 g of a 30% solution of Kollidon^(R) VA 64 in 2-propanol. 10 ml of 2-propanol is added. The mixture that is obtained is stirred for 5 minutes. The mixture is fed into the adhesive solution (Gelva 7881) that is introduced. The following table indicates the adhesive dry mass that is contained in the introduced volume of the adhesive solution. Then, it is stirred for another 0.5 hour. After polarization-microscopic checking to ensure the absence of crystals, the mixture that is obtained is coated by means of a 300 μm doctor blade on a liner that consists of fluoropolymer-coated polyester (Scotchpak^(R) 1022 Release Liner). It is dried for 20 minutes at 70° C. and then laminated with a backing that consists of a co-laminate of PVC-PVDS with polyester (Saran-Hytrel^(R) backing). Round patches with a surface area of 10 cm^2 are punched from the three-layer laminate that is obtained and welded into a sealed bag that is made of aluminum compound foil.
A matrix-TDS, in which the active ingredient is present in dissolved form, can be produced according to Example 1 with gestodene only up to about 1% (m/m). Moreover, it results in recrystallization phenomena of the gestodene. The skin flow cannot increase decisively.

[3] = formulations for transdermal systems; cited from earlier work

In the case of `C#C[C@]1(O)C=C[C@H]2[C@@H]3CCC4=CC(=O)CC[C@@H]4[C@H]3CC[C@@]21CC` [gestodene], the “transdermal in-vitro skin flow” value ([1]; 1 h, diffusion cell 1) was 0 ng/cm^2/h, the “transdermal in-vitro skin flow” value ([1]; 1 h, diffusion cell 2) was 0 ng/cm^2/h and the “transdermal in-vitro skin flow” value ([1]; 1 h, diffusion cell 3) was 0 ng/cm^2/h. For the same compound, the “transdermal in-vitro skin flow” value ([1]; 1 h, diffusion cell 4) was 0 ng/cm^2/h, the “transdermal in-vitro skin flow, MW (mean value)” value ([1]; 1 h) was 0 ng/cm^2/h and the “transdermal in-vitro skin flow” value ([1]; 3 h, diffusion cell 1) was 1 ng/cm^2/h. For the same compound, the “transdermal in-vitro skin flow” value ([1]; 3 h, diffusion cell 2) was 4 ng/cm^2/h, the “transdermal in-vitro skin flow” value ([1]; 3 h, diffusion cell 3) was 2 ng/cm^2/h and the “transdermal in-vitro skin flow” value ([1]; 3 h, diffusion cell 4) was 5 ng/cm^2/h. The “transdermal in-vitro skin flow, MW (mean value)” value ([1]; 3 h) was 3 ng/cm^2/h, the “transdermal in-vitro skin flow” value ([1]; 5 h, diffusion cell 1) was 5 ng/cm^2/h and the “transdermal in-vitro skin flow” value ([1]; 5 h, diffusion cell 2) was 31 ng/cm^2/h. For the same compound, the “transdermal in-vitro skin flow” value ([1]; 5 h, diffusion cell 3) was 14 ng/cm^2/h, the “transdermal in-vitro skin flow” value ([1]; 5 h, diffusion cell 4) was 18 ng/cm^2/h and the “transdermal in-vitro skin flow, MW (mean value)” value ([1]; 5 h) was 17 ng/cm^2/h. For the same compound, the “transdermal in-vitro skin flow” value ([1]; 10 h, diffusion cell 1) was 39 ng/cm^2/h, the “transdermal in-vitro skin flow” value ([1]; 10 h, diffusion cell 2) was 72 ng/cm^2/h and the “transdermal in-vitro skin flow” value ([1]; 10 h, diffusion cell 3) was 80 ng/cm^2/h. The “transdermal in-vitro skin flow” value ([1]; 10 h, diffusion cell 4) was 58 ng/cm^2/h, the “transdermal in-vitro skin flow, MW (mean value)” value ([1]; 10 h) was 62 ng/cm^2/h and the “transdermal in-vitro skin flow” value ([1]; 18 h, diffusion cell 1) was 77 ng/cm^2/h. For the same compound, the “transdermal in-vitro skin flow” value ([1]; 18 h, diffusion cell 2) was 46 ng/cm^2/h, the “transdermal in-vitro skin flow” value ([1]; 18 h, diffusion cell 3) was 110 ng/cm^2/h and the “transdermal in-vitro skin flow” value ([1]; 18 h, diffusion cell 4) was 36 ng/cm^2/h. The “transdermal in-vitro skin flow, MW (mean value)” value ([1]; 18 h) was 67 ng/cm^2/h, the “transdermal in-vitro skin flow” value ([1]; 26 h, diffusion cell 1) was 120 ng/cm^2/h and the “transdermal in-vitro skin flow” value ([1]; 26 h, diffusion cell 2) was 45 ng/cm^2/h. The “transdermal in-vitro skin flow” value ([1]; 26 h, diffusion cell 3) was 111 ng/cm^2/h, the “transdermal in-vitro skin flow” value ([1]; 26 h, diffusion cell 4) was 33 ng/cm^2/h and the “transdermal in-vitro skin flow, MW (mean value)” value ([1]; 26 h) was 77 ng/cm^2/h. The “transdermal in-vitro skin flow” value ([1]; 34 h, diffusion cell 1) was 50 ng/cm^2/h, the “transdermal in-vitro skin flow” value ([1]; 34 h, diffusion cell 2) was 39 ng/cm^2/h and the “transdermal in-vitro skin flow” value ([1]; 34 h, diffusion cell 3) was 83 ng/cm^2/h. For the same compound, the “transdermal in-vitro skin flow” value ([1]; 34 h, diffusion cell 4) was 31 ng/cm^2/h, the “transdermal in-vitro skin flow, MW (mean value)” value ([1]; 34 h) was 51 ng/cm^2/h and the “transdermal in-vitro skin flow” value ([1]; 42 h, diffusion cell 1) was 47 ng/cm^2/h. The “transdermal in-vitro skin flow” value ([1]; 42 h, diffusion cell 2) was 33 ng/cm^2/h, the “transdermal in-vitro skin flow” value ([1]; 42 h, diffusion cell 3) was 74 ng/cm^2/h and the “transdermal in-vitro skin flow” value ([1]; 42 h, diffusion cell 4) was 25 ng/cm^2/h. For the same compound, the “transdermal in-vitro skin flow, MW (mean value)” value ([1]; 42 h) was 45 ng/cm^2/h, the “transdermal in-vitro skin flow” value ([1]; 50 h, diffusion cell 1) was 37 ng/cm^2/h and the “transdermal in-vitro skin flow” value ([1]; 50 h, diffusion cell 2) was 27 ng/cm^2/h. The “transdermal in-vitro skin flow” value ([1]; 50 h, diffusion cell 3) was 44 ng/cm^2/h, the “transdermal in-vitro skin flow” value ([1]; 50 h, diffusion cell 4) was 22 ng/cm^2/h and the “transdermal in-vitro skin flow, MW (mean value)” value ([1]; 50 h) was 32 ng/cm^2/h. The “content up to which active ingredient is present in dissolved form in matrix-TDS” value [2] was “about 1 % (m/m)” and the “solubility in the matrices used” value [3] was “about 1%”.

With `C[C@H](O)C(=O)[C@]12C=C[C@@]3(CC1)C1CCC4=CC(=O)CCC4=C1CC[C@]23C` (stereo partly drawn) [hydroxytrienedione, (21S)-21-hydroxy-21-methyl-14,17-ethano-19-norpregna-4,9,15-triene-3,20-dione] the “skin flows for 1%-matrix-TDS, hydroxytrienedione versus gestodene” value ([1]; 1%-matrix-TDS) was “comparable”, the “content up to which active ingredient is present in dissolved form in matrix-TDS” value [2] was “about 20 % (m/m)” and the “solubility in transdermal systems” value ([2]; matrix-transdermal systems based on polyacrylate adhesive) was “about 20 % by weight”.
